Key:
[1] = test system: Hs-578-T (Breast Carcinoma); test: combination Emax (second highest fraction inhibited in the dose matrix, 72 h); higher = more inhibition; extreme values may be limits of the assay
In short: (§1)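 Cell lines grown in DMEM/F12 or RPMI with 10% FBS were plated in 1536-well plates and held 24 hours at 37°C, 5% CO2 before 72 hours of exposure to two-drug dose matrices, with DMSO typically at 0.2%. CellTiter-Glo 2.0 luminescence gave viability, which was converted to inhibition. Vehicle wells were set to 0 and blank wells to 1. Combination Emax is the second-highest inhibition in the matrix, and Bliss excess is the observed combination effect minus the expected EA + EB − EA·EB, where EA and EB are the single-agent effects.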

[2] = test system: CCRF-CEM (T-Lymphoblastic Leukemia); test: as above
In short: as §1

[3] = test system: Calu-3 (Lung Adenocarcinoma); test: as above
In short: as §1

[4] = test system: MFE-296 (Endometrial Carcinoma); test: as above
In short: as §1

[5] = test system: LS-180 (Colorectal Carcinoma); test: as above
In short: as §1

[6] = test system: TE-15 (Esophageal Squamous Cell Carcinoma); test: as above
In short: as §1

[7] = test system: EC-GI-10 (Esophageal Squamous Cell Carcinoma); test: as above
In short: as §1

[8] = test system: HCC-78 (Lung Adenocarcinoma); test: as above
In short: as §1

[9] = test system: MDA-MB-361 (Breast Carcinoma); test: as above
In short: as §1

[10] = test system: DoTc2-4510 (Cervical Carcinoma); test: as above
In short: as §1

[11] = test system: KP-1N (Pancreatic Carcinoma); test: as above
In short: as §1

NB10 (Neuroblastoma) = test: as above
In short: as §1

[12] = test system: NCI-H1869 (Non-Small Cell Lung Carcinoma); test: Bliss excess, mean over the matrix (fraction); higher = more synergy
In short: as §1

[13] = test system: NCI-H1869 (Non-Small Cell Lung Carcinoma); test: combination Emax (second highest fraction inhibited in the dose matrix, 72 h); higher = more inhibition; extreme values may be limits of the assay
In short: as §1
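Throughout, for Bliss excess, mean over the matrix: after 72 h of two-drug dosing.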

## Cc1c2c(nn1C)CSCc1cc(n(C)n1)CSc1cc(c3ccccc3c1)OCCCc1c(C(=O)O)n(C)c3c-2c(Cl)ccc13 [AZD5991] + CN(C)CCCOc1ccc(-c2ccc3ncc4c(c3c2)n(C2CCOCC2)c(=O)n4C)cn1 [AZD0156] (first compound max 1 µM, 7x7, partner max 1 µM)
[1]
  combination Emax: 0.585
[2]
  combination Emax: 0.48
[3]
  combination Emax: 0.15
[4]
  combination Emax: 0.287
[5]
  combination Emax: 0.196
[6]
  combination Emax: 0.188
[7]
  combination Emax: 0.747
[8]
  combination Emax: 0.211
[9]
  combination Emax: 0.791
[10]
  combination Emax: 0.326
[11]
  combination Emax: 0.229
NB10 (Neuroblastoma)
  combination Emax: 0.273

## CN(C)CCCOc1ccc(-c2ccc3ncc4c(c3c2)n(C2CCOCC2)c(=O)n4C)cn1 [AZD0156] + O=C(c1cc(Cc2n[nH]c(=O)c3ccccc23)ccc1F)N1CCN(C(=O)C2CC2)CC1 [Olaparib] (first compound max 3 µM, partner max 3 µM)
[12]
  Bliss excess: -0.0306
[1]
  combination Emax: 0.519
[2]
  combination Emax: 0.46
[3]
  combination Emax: 0.184
[4]
  combination Emax: 0.228
[5]
  combination Emax: 0.24
[6]
  combination Emax: 0.253
[7]
  combination Emax: 0.436
[8]
  combination Emax: 0.448
[9]
  combination Emax: 0.384
[10]
  combination Emax: 0.206
[13]
  combination Emax: 0.19
[11]
  combination Emax: 0.277
NB10 (Neuroblastoma)
  combination Emax: 0.593

## C=CCn1c(=O)c2cnc(Nc3ccc(N4CCN(C)CC4)cc3)nc2n1-c1cccc(C(C)(C)O)n1 [AZD1775] + C1CN(CCC1(C(=O)N[C@@H](CCO)C2=CC=C(C=C2)Cl)N)C3=NC=NC4=C3C=CN4 [Capivasertib] (first compound max 3 µM, partner max 3 µM)
[12]
  Bliss excess: 0.0342
[1]
  combination Emax: 0.841
[2]
  combination Emax: 1
[3]
  combination Emax: 0.466
[4]
  combination Emax: 0.561
[5]
  combination Emax: 0.734
[6]
  combination Emax: 0.724
[7]
  combination Emax: 0.965
[8]
  combination Emax: 0.626
[9]
  combination Emax: 0.851
[10]
  combination Emax: 0.723
[13]
  combination Emax: 0.388
[11]
  combination Emax: 0.633
NB10 (Neuroblastoma)
  combination Emax: 0.892

## CC(=O)c1c(C)c2cnc(Nc3ccc(N4CCNCC4)cn3)nc2n(C2CCCC2)c1=O [Palbociclib] + Cn1cnc2c(F)c(Nc3ccc(Br)cc3Cl)c(C(=O)NOCCO)cc21 [Selumetinib] (first compound max 10 µM, 7x7, partner max 10 µM)
[1]
  combination Emax: 0.344
[2]
  combination Emax: 0.624
[3]
  combination Emax: 0.149
[4]
  combination Emax: 0.105
[5]
  combination Emax: 0.759
[6]
  combination Emax: 0.657
[7]
  combination Emax: 0.493
[8]
  combination Emax: 0.168
[9]
  combination Emax: 0.154
[10]
  combination Emax: 0.117
[11]
  combination Emax: 0.196
NB10 (Neuroblastoma)
  combination Emax: 0.579

## CN(CCO)CC[C@H](CSc1ccccc1)Nc1ccc(S(=O)(=O)NC(=O)c2ccc(N3CCC([C@@H](O)c4ccccc4-c4ccc(Cl)cc4)CC3)cc2)cc1S(=O)(=O)C(F)(F)F [AZD4320] + C1CN(CCC1(C(=O)N[C@@H](CCO)C2=CC=C(C=C2)Cl)N)C3=NC=NC4=C3C=CN4 [Capivasertib] (first compound max 1 µM, 7x7, partner max 3 µM)
[1]
  combination Emax: 0.639
[2]
  combination Emax: 1
[3]
  combination Emax: 0.124
[4]
  combination Emax: 0.388
[5]
  combination Emax: 0.213
[6]
  combination Emax: 0.141
[7]
  combination Emax: 0.204
[8]
  combination Emax: 0.31
[9]
  combination Emax: 0.341
[10]
  combination Emax: 0.59
[11]
  combination Emax: 0.0744
NB10 (Neuroblastoma)
  combination Emax: 0.108

## COc1nnc2ccc(N3CCC(c4ccc(OCCN5CCN(C)C(=O)[C@H]5C)cc4)CC3)nn12 [AZD5153] + CCN(CCO)CCCOc1ccc2c(Nc3cc(CC(=O)Nc4cccc(F)c4)[nH]n3)ncnc2c1 [AZD2811] (first compound max 1 µM, 7x7, partner max 1 µM)
[1]
  combination Emax: 0.771
[2]
  combination Emax: 0.993
[3]
  combination Emax: 0.635
[4]
  combination Emax: 0.333
[5]
  combination Emax: 0.617
[6]
  combination Emax: 0.486
[7]
  combination Emax: 0.425
[8]
  combination Emax: 0.489
[9]
  combination Emax: 0.49
[10]
  combination Emax: 0.381
[11]
  combination Emax: 0.542
NB10 (Neuroblastoma)
  combination Emax: 0.571

## CCN(CCO)CCCOc1ccc2c(Nc3cc(CC(=O)Nc4cccc(F)c4)[nH]n3)ncnc2c1 [AZD2811] + C[C@@H]1COCCN1C2=NC(=NC(=C2)C3(CC3)[S@](=N)(=O)C)C4=C5C=CNC5=NC=C4 [AZD6738] (first compound max 1 µM, 7x7, partner max 10 µM)
[1]
  combination Emax: 0.839
[2]
  combination Emax: 1
[3]
  combination Emax: 0.217
[4]
  combination Emax: 0.405
[5]
  combination Emax: 0.754
[6]
  combination Emax: 0.731
[7]
  combination Emax: 0.824
[8]
  combination Emax: 0.595
[9]
  combination Emax: 0.815
[10]
  combination Emax: 0.675
[11]
  combination Emax: 0.199
NB10 (Neuroblastoma)
  combination Emax: 0.771

## COc1nnc2ccc(N3CCC(c4ccc(OCCN5CCN(C)C(=O)[C@H]5C)cc4)CC3)nn12 [AZD5153] + CC1(C)CCC(CN2CCN(c3ccc(C(=O)NS(=O)(=O)c4ccc(NCC5CCOCC5)c([N+](=O)[O-])c4)c(Oc4cnc5[nH]ccc5c4)c3)CC2)=C(c2ccc(Cl)cc2)C1 [Venetoclax] (first compound max 1 µM, 7x7, partner max 1 µM)
[1]
  combination Emax: 0.761
[2]
  combination Emax: 0.562
[3]
  combination Emax: 0.621
[4]
  combination Emax: 0.27
[5]
  combination Emax: 0.61
[6]
  combination Emax: 0.503
[7]
  combination Emax: 0.251
[8]
  combination Emax: 0.411
[9]
  combination Emax: 0.443
[10]
  combination Emax: 0.385
[11]
  combination Emax: 0.481
NB10 (Neuroblastoma)
  combination Emax: 0.527

## CCN(CCO)CCCOc1ccc2c(Nc3cc(CC(=O)Nc4cccc(F)c4)[nH]n3)ncnc2c1 [AZD2811] + C=CCn1c(=O)c2cnc(Nc3ccc(N4CCN(C)CC4)cc3)nc2n1-c1cccc(C(C)(C)O)n1 [AZD1775] (first compound max 1 µM, partner max 1 µM)
[1]
  combination Emax: 0.775
[2]
  combination Emax: 1
[3]
  combination Emax: 0.0931
[4]
  combination Emax: 0.152
[5]
  combination Emax: 0.42
[6]
  combination Emax: 0.496
[7]
  combination Emax: 0.849
[8]
  combination Emax: 0.327
[9]
  combination Emax: 0.801
[10]
  combination Emax: 0.534
[11]
  combination Emax: 0.401
NB10 (Neuroblastoma)
  combination Emax: 0.466

## CC1(C)CCC(CN2CCN(c3ccc(C(=O)NS(=O)(=O)c4ccc(NCC5CCOCC5)c([N+](=O)[O-])c4)c(Oc4cnc5[nH]ccc5c4)c3)CC2)=C(c2ccc(Cl)cc2)C1 [Venetoclax] + C[C@@H](Nc1cc(F)cc(F)c1)c1cc(C(=O)N(C)C)cc2c(=O)cc(N3CCOCC3)oc12 [AZD8186] (first compound max 1 µM, 7x7, partner max 3 µM)
[1]
  combination Emax: 0.734
[2]
  combination Emax: 0.95
[3]
  combination Emax: 0.0911
[4]
  combination Emax: 0.0282
[5]
  combination Emax: 0.184
[6]
  combination Emax: 0.369
[7]
  combination Emax: 0.131
[8]
  combination Emax: 0.261
[9]
  combination Emax: 0.372
[10]
  combination Emax: 0.197
[11]
  combination Emax: 0.235
NB10 (Neuroblastoma)
  combination Emax: 0.24

## COc1nnc2ccc(N3CCC(c4ccc(OCCN5CCN(C)C(=O)[C@H]5C)cc4)CC3)nn12 [AZD5153] + C=CCn1c(=O)c2cnc(Nc3ccc(N4CCN(C)CC4)cc3)nc2n1-c1cccc(C(C)(C)O)n1 [AZD1775] (first compound max 1 µM, partner max 1 µM)
[1]
  combination Emax: 0.822
[2]
  combination Emax: 1
[3]
  combination Emax: 0.632
[4]
  combination Emax: 0.581
[5]
  combination Emax: 0.623
[6]
  combination Emax: 0.756
[7]
  combination Emax: 0.865
[8]
  combination Emax: 0.421
[9]
  combination Emax: 0.791
[10]
  combination Emax: 0.473
[11]
  combination Emax: 0.655
NB10 (Neuroblastoma)
  combination Emax: 0.749

From the supplement of paper PMC11061612
